# Results: US20080020977A1, “Use of Fullerenes to Oxidize Reduced Redox Proteins” (priority 2005, published 2008)
# Assays:
# cytochrome c = assay: Oxidation state of cytochrome c in the xanthine/xanthine oxidase system (absorbance at 550 nm); format: biochemical; settings: substituted fullerene added at time zero; versus blank without fullerene; data not shown
# Protocol: The reduction of cytochrome c was performed by employing the xanthine/xanthine oxidase system. The reaction was initiated by the addition of xanthine oxidase (7.5×10^−3 units) to an incubation mixture containing 50 mM potassium phosphate, 0.1 mM EDTA, 0.01 mM cytochrome c, and 0.05 mM xanthine. Xanthine oxidase catalyzed the formation of superoxide radicals, which then reduced cytochrome c to the ferrous form. Reduction of cytochrome c was followed by recording the corresponding increase in the absorbance at 550 nm, using the molar absorption coefficients of 9 mmol^−1cm^−1 and 27.7 mmol^−1cm^−1 for the oxidized (ferric) and reduced (ferrous) forms, respectively. All assays were performed at room temperature. A volume of 3 mL was used in each experiment.
# The effect of fullerenes on the oxidation state of cytochrome c was studied using substituted fullerenes C3 and DF-1, described above, wherein the substituted fullerene was added to the reaction mixture at 5, 10, or 15 minutes after addition of xanthine oxidase. Results are shown in FIG. 11, with time=0 for each run being the moment when the substituted fullerene was added. In the negative control, without fullerene (blank), reduction of cytochrome c (increase of absorbance at 550 nm) can be seen over 600 sec. […]
# mice = settings: oral, about 0.5 mg/kg/day, cited from earlier work
substance,measurement,setting,value
(C60(>C(COOH)2)3) [C3],extent and rate of reduction of cytochrome c (increase of absorbance at 550 nm),cytochrome c,reduced
same,mean survival,mice; controls 23.5+/−5.5 months,28.7+/−3.3 months
same,increase in mean survival relative to controls,mice; p=0.033,~20%
